Measured values as given in patent US20090117563A1, “Identification of TRPML3 (MCOLN3) as a Salty Taste Receptor and Use in Assays for Identifying Taste (Salty) Modulators and/or Therapeutics that Modulate Sodium Transport, Absorption or Excretion and/or Aldosterone and/or Vasopressin Production or Release” (priority 2007, published 2009).

Biological target: T1, A419P TRPML3 (Homo sapiens, UniProt Q8TDD5, A419P)
T1 construct: expressed in transfected cells
T1 sequence (Q8TDD5 1-553 A419P): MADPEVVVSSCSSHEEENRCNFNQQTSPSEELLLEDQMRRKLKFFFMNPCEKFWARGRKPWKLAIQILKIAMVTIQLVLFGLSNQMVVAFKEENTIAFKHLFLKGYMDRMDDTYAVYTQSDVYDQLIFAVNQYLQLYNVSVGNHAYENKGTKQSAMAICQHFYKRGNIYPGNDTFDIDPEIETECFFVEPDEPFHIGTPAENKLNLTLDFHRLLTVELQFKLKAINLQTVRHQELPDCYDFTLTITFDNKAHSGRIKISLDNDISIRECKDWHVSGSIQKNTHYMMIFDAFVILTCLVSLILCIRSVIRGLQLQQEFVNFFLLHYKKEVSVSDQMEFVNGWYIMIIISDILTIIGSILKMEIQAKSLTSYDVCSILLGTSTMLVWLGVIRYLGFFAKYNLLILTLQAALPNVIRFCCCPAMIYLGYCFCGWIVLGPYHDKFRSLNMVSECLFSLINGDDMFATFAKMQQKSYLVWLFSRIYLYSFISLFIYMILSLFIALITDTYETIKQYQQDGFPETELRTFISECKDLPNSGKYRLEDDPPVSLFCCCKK
Assay: IonWorks PPC patch clamp, inducible CHO-K1 cell line expressing A419P TRPML3
Assay type: cell-based
Details: 4 mM GdCl3 solution
Excerpt: Different versions of human TRPML3 can be assayed, included but not limited to a wild-type version and a gain of function mutant version encoding an A419P substitution. TRPML3 can be expressed in CHO-K1 cells by one of three methods: (i) transient transfection (ii) BacMam transduction or (iii) a stable transfection and TRPML3 function measured using the perforated patch clamp technique on an IonWorks Quattro instrument (MDS Analytical Technologies). Cells are dissociated with Detachin cell detachment solution (Genlantis), centrifuged, and resuspended in external recording buffer (150 mM NaCl, 2 mM KCl, 1.5 mM CaCl2, 1 mM MgCl2, 10 mM HEPES pH 7.4 with NaOH). […]
The following description illustrates the IonWorks screening assay to identify compounds that modulate (activate or block) TRPML3 function. […] In each scan currents are measured as the voltage is modified (see example voltage command trace in FIG. 29).
Compounds will be applied at concentrations between ˜1 uM and 100 uM. […] Compounds that enhance TRPML3 by affecting the voltage dependent rectification will be preferentially detected at −40 mV where the rectification is strong while compounds that block TRPML3 will be preferentially detected at −120 mV where the TRPML3 currents are larger. To quantitate the effect of a compound on TRPML3 function, we use the following formula: [(A−Ao)/(B−Bo)]×100. […]

[Cl][Gd]([Cl])[Cl] [gadolinium, gadolinium chloride]
effect on TRPML3 current (IonWorks scan): blocks TRPML3 current
